Here are results for five molecules from ChEMBL document CHEMBL3091424, “Anti-tubercular agents. Part 8: synthesis, antibacterial and antitubercular activity of 5-nitrofuran based 1,2,3-triazoles” (Bioorg Med Chem Lett, 2013).

In assay [1] the test system is Candida albicans. Briefly: microbe, parasite or virus in culture. Particulars: MTCC 3017, 24 h.
Description: Antimicrobial activity against Candida albicans MTCC 3017 after 24 hrs by well diffusion method
For assay [2], the system named is Vero. Briefly: Cytotoxicity against african green monkey Vero cells. Type of assay: cell-based. The note with it: Chlorocebus sabaeus.
Assay [3] deals with Micrococcus luteus. Briefly: Bactericidal activity against Micrococcus luteus MTCC 2470 after 24 hrs. Type of assay: functional. The note with it: MTCC 2470, 24 h.
Assay [4] deals with Staphylococcus aureus. The experiment in a line: Antibiofilm activity against Staphylococcus aureus MLS-16 MTCC 2940 after 24 hrs by crystal violet assay. The format is functional, organism-based. Particulars: MLS-16 MTCC 2940, 24 h.
For assay [5], the system named is Mycobacterium tuberculosis. Briefly: Antimicrobial activity against Mycobacterium tuberculosis H37Rv after 3 weeks by broth dilution method. The format is functional. The note with it: 504 h. (In general: Broth dilution looks for growth in wells or tubes with falling amounts of substance.)
The subject of assay [6] is Candida albicans. The experiment in a line: Antimicrobial activity against Candida albicans MTCC 3017 at 150 ug/ml after 24 hrs by well diffusion method. Type of assay: functional, organism-based. (In general: In agar diffusion tests the substance spreads into inoculated agar from a disc or well.)
For assay [7], the system named is MRC5. The experiment in a line: Cytotoxicity against human MRC5 cells. Type of assay: cell-based.
Assay [8] has as its system Micrococcus luteus. Briefly: Antimicrobial activity against Micrococcus luteus MTCC 2470 after 24 hrs by well diffusion method. The format is functional. Particulars: MTCC 2470, 24 h.
For assay [9], the system named is Escherichia coli. Briefly: Antimicrobial activity against Escherichia coli MTCC 739 after 24 hrs by well diffusion method. The note with it: MTCC 739, 24 h. The format is functional.
In assay [10] the test system is Raoultella planticola. Briefly: Antimicrobial activity against Klebsiella planticola MTCC 530 after 24 hrs by well diffusion method. The format is functional. Particulars: MTCC 530, 24 h.
The subject of assay [11] is Raoultella planticola. The experiment in a line: Bactericidal activity against Klebsiella planticola MTCC 530 after 24 hrs. The format is functional. Particulars: MTCC 530, 24 h.
In assay [12] the test system is Staphylococcus aureus. Briefly: Antimicrobial activity against Staphylococcus aureus MLS-16 MTCC 2940 after 24 hrs by well diffusion method. Type of assay: functional. Particulars: MLS-16 MTCC 2940, 24 h.
The test system of assay [13] is Enterococcus faecalis. Briefly: Antimicrobial activity against vancomycin -resistant Enterococcus faecalis after 24 hrs by microdilution method. The format is functional.
Assay [14] concerns Staphylococcus aureus. Briefly: Antimicrobial activity against methicillin-resistant Staphylococcus aureus after 24 hrs by microdilution method. The format is functional.
Assay [15] has as its system Pseudomonas aeruginosa. Briefly: Antimicrobial activity against Pseudomonas aeruginosa MTCC 2453 after 24 hrs by well diffusion method. The format is functional. The note with it: MTCC 2453, 24 h.
Assay [16] concerns Pseudomonas aeruginosa. Briefly: Bactericidal activity against Pseudomonas aeruginosa MTCC 2453 after 24 hrs. The format is functional. The note with it: MTCC 2453, 24 h.
Assay [17] concerns Staphylococcus aureus. The experiment in a line: Antimicrobial activity against Staphylococcus aureus MTCC 96 after 24 hrs by well diffusion method. Type of assay: functional. Particulars: MTCC 96, 24 h.
Assay [18] deals with Bacillus subtilis. Briefly: Antimicrobial activity against Bacillus subtilis MTCC 121 after 24 hrs by well diffusion method. Type of assay: functional. Particulars: MTCC 121, 24 h.
Assay [19] has as its system Staphylococcus aureus. The experiment in a line: Antibiofilm activity against Staphylococcus aureus MTCC 96 after 24 hrs by crystal violet assay. Type of assay: functional, organism-based. The note with it: for IC50: MTCC 96, 24 h.
The subject of assay [20] is Staphylococcus aureus. Briefly: Bactericidal activity against Staphylococcus aureus MTCC 96 after 24 hrs. The format is functional. Particulars: MTCC 96, 24 h.
In assay [21] the test system is Staphylococcus aureus. The experiment in a line: Bactericidal activity against Staphylococcus aureus MLS-16 MTCC 2940 after 24 hrs. Type of assay: functional. The note with it: MLS-16 MTCC 2940, 24 h.
The subject of assay [22] is Bacillus subtilis. Briefly: Bactericidal activity against Bacillus subtilis MTCC 121 after 24 hrs. Type of assay: functional. Particulars: MTCC 121, 24 h.
The subject of assay [23] is Raoultella planticola. Briefly: Antibiofilm activity against Klebsiella planticola MTCC 530 after 24 hrs by crystal violet assay. The format is functional, organism-based. The note with it: MTCC 530, 24 h.
For assay [24], the system named is Escherichia coli. Briefly: Bactericidal activity against Escherichia coli MTCC 739 after 24 hrs. Type of assay: functional. Particulars: MTCC 739, 24 h.
Assay [25] relates to Mycobacterium tuberculosis. The experiment in a line: Ratio of linezolid MIC to compound MIC for Mycobacterium tuberculosis H37Rv after 3 weeks by broth dilution method. The format is functional.

Each structure is given as a SMILES string. In brackets after ≈: the same amount, converted by molar mass. Activity calls are given as the source filed them. The rule behind the calls is not given here.

Take `Clc1ccc(COC(Cn2ccnc2)c2ccc(Cl)cc2Cl)c(Cl)c1` (centres undefined) [MICONAZOLE]: in assay [1], the MIC stood at 9.37 µg/mL (≈ 22.5 µM).

A word on the IC50: it is the concentration needed to halve the response being measured. As a reminder, the MBC is the lowest tested concentration that kills the bacteria rather than only halting them. On to `O=C(NCc1cn(Cc2ccc([N+](=O)[O-])cc2)nn1)c1ccc([N+](=O)[O-])o1`, for which the IC50 was determined as 291 µM in assay [2], 3.8 µg/mL (≈ 10.2 µM) in [4], 213 µM in [7] and 17.9 µg/mL (≈ 48.1 µM) in assay [23]. Moreover, the minimum bactericidal concentration (MBC) in [3] is 9.37 µg/mL (≈ 25.2 µM); in [11], 37.5 µg/mL (≈ 101 µM); in assay [16] it was greater than 150 µg/mL; in assay [20], greater than 150 µg/mL; in assay [21], 4.68 µg/mL (≈ 12.6 µM); in [22], 4.68 µg/mL (≈ 12.6 µM). The MBC in assay [24] is greater than 150 µg/mL. Moreover, the MIC in assay [5] was 8 µg/mL (≈ 21.5 µM); in assay [8], 4.68 µg/mL (≈ 12.6 µM); in assay [9] it was greater than 150 µg/mL; in [10] it was 18.8 µg/mL (≈ 50.4 µM); in assay [12], 4.68 µg/mL (≈ 12.6 µM); in assay [13], greater than 64 µg/mL. Moreover, the MIC in assay [14] is 8 µg/mL (≈ 21.5 µM); in assay [15] it was greater than 150 µg/mL; in assay [17], greater than 150 µg/mL; in assay [18] it was 2.34 µg/mL (≈ 6.29 µM). Moreover, in assay [6], the result was inactive. The inhibition result in assay [19] was “inactive”.

As for `COc1cc(Cn2cc(CNC(=O)c3ccc([N+](=O)[O-])o3)nn2)ccc1O`, the 50% inhibitory concentration (IC50) in assay [2] amounted to 224 µM; in assay [4], 1.7 µg/mL (≈ 4.55 µM); in [7], 182 µM; in assay [19], 10.8 µg/mL (≈ 28.9 µM); in assay [23], 42.5 µg/mL (≈ 114 µM). Further, the MBC in assay [3] is 2.34 µg/mL (≈ 6.27 µM); in assay [11], 75 µg/mL (≈ 201 µM); in assay [16] it was greater than 150 µg/mL; in [20], 18.8 µg/mL (≈ 50.2 µM); in assay [21] it was 4.68 µg/mL (≈ 12.5 µM); in [22], 9.37 µg/mL (≈ 25.1 µM). Also, the MBC in [24] is 75 µg/mL (≈ 201 µM). Besides, the MIC in [5] was 8 µg/mL (≈ 21.4 µM); in assay [8] it was 1.17 µg/mL (≈ 3.13 µM); in [9], 37.5 µg/mL (≈ 100 µM); in assay [10], 75 µg/mL (≈ 201 µM); in assay [12], 2.34 µg/mL (≈ 6.27 µM); in [13] it was greater than 64 µg/mL. The MIC in [14] was 16 µg/mL (≈ 42.9 µM); in [15], greater than 150 µg/mL; in assay [17] it was 18.8 µg/mL (≈ 50.2 µM); in assay [18], 4.68 µg/mL (≈ 12.5 µM). Also, the result in assay [6] was inactive.

As to `O=C(NCc1cn(Cc2ccc(F)c(Cl)c2)nn1)c1ccc([N+](=O)[O-])o1`, the IC50 in assay [2] worked out at 344 µM; in assay [4] it was 1.1 µg/mL (≈ 2.9 µM); in [7] it was 254 µM; in assay [19], 13.6 µg/mL (≈ 35.8 µM); in assay [23], 12.2 µg/mL (≈ 32.1 µM). Moreover, the MBC is 2.34 µg/mL (≈ 6.16 µM) in assay [3]; 37.5 µg/mL (≈ 98.8 µM) in [11]; greater than 150 µg/mL in assay [16]; 18.8 µg/mL (≈ 49.4 µM) in [20]; 2.34 µg/mL (≈ 6.16 µM) in [21]; 1.17 µg/mL (≈ 3.08 µM) in assay [22]. In assay [24], this molecule came in with a minimal bactericidal concentration (MBC) of 18.8 µg/mL (≈ 49.4 µM). For the same molecule, the MIC in assay [5] was 0.25 µg/mL (≈ 0.658 µM); in [8], 2.34 µg/mL (≈ 6.16 µM); in [9], 18.8 µg/mL (≈ 49.4 µM); in [10] it was 18.8 µg/mL (≈ 49.4 µM); in assay [12], 2.34 µg/mL (≈ 6.16 µM); in assay [13], greater than 64 µg/mL. The MIC in assay [14] was 8 µg/mL (≈ 21.1 µM); in assay [15], greater than 150 µg/mL; in assay [17], 18.8 µg/mL (≈ 49.4 µM); in [18], 1.17 µg/mL (≈ 3.08 µM). Further, the result in assay [6] was inactive. Further, the Ratio in [25] is given as 4.

Turning to `O=C(NCc1cn(Cc2cccc([N+](=O)[O-])c2)nn1)c1ccc([N+](=O)[O-])o1`, the IC50 stood at 326 µM in [2]; 0.8 µg/mL (≈ 2.15 µM) in assay [4]; 199 µM in assay [7]; 84.5 µg/mL (≈ 227 µM) in [19]; 14.5 µg/mL (≈ 38.9 µM) in assay [23]. The MBC in assay [3] is 9.37 µg/mL (≈ 25.2 µM); in [11], 37.5 µg/mL (≈ 101 µM); in assay [16], greater than 150 µg/mL; in [20] it was greater than 150 µg/mL; in [21] it was 2.34 µg/mL (≈ 6.29 µM); in assay [22] it was 4.68 µg/mL (≈ 12.6 µM). Besides, in [24], the MBC was 18.8 µg/mL (≈ 50.4 µM). Besides, the MIC in assay [5] is 8 µg/mL (≈ 21.5 µM); in [8] it was 4.68 µg/mL (≈ 12.6 µM); in assay [9], 9.37 µg/mL (≈ 25.2 µM); in [10], 18.8 µg/mL (≈ 50.4 µM); in [12], 1.17 µg/mL (≈ 3.14 µM); in assay [13], greater than 64 µg/mL. Besides, the MIC was 8 µg/mL (≈ 21.5 µM) in [14], greater than 150 µg/mL in assay [15], greater than 150 µg/mL in assay [17] and 2.34 µg/mL (≈ 6.29 µM) in assay [18]. Moreover, the result in assay [6] was inactive.
